Laboratory results published in patent publication US20110263647A1 (AMGEN INC., priority 2009, published 2011).
Where a name gives a salt, the structure may show the parent alone.

Key:
PKBα = target: T1, PKBα (Homo sapiens, UniProt P31749); assay: PKB kinase assay (P33-labeled ATP, peptide substrate, filter plate); format: biochemical; conditions: with respect to PKBα
T1 construct: fused on or other part: His6 tag is likely on the Upstate products

CYP3A4 = target: T2, CYP3A4 (Homo sapiens, UniProt P08684); assay: CYP3A4 inhibition assay (midazolam, pooled human liver microsomes); format: in vitro ADME; conditions: pH 7.4, probe midazolam (2.5 μM), test compound 3 μM, human liver microsomes 0.1 mg/mL
T2 construct: tissue XenoTech LLC Lot 0610351; host or cells: pooled human liver microsomes
Method: Midazolam was obtained from BD Gentest (Waltham, Mass.); 1′ hydroxy midazolam and 1-hydroxy bufuralol maleate were obtained from Ultrafine Chemicals (Manchester, UK); bufuralol HCl, ketoconazole, quinidine, potassium phosphate, and NADPH were obtained from Sigma (St. Louis, Mo.). Test compounds were prepared at 10 mM concentration in DMSO (Mallinckrodt Inc., St. Louis, Mo.). NADPH was prepared at 10 mM concentration in a pH 7.4 buffer (8.3 mg/mL 66.7 mM potassium phosphate). Midazolam was prepared at 1 mM concentration in deionized water (Amgen, Thousand Oaks, Calif.), and bufuralol was prepared at 2 mM concentration in deionized water. A stock solution of ketoconazole was prepared at 37 mM concentration in DMSO, and quinidine was prepared at 500 uM concentration in DMSO. Formic acid in acetonitrile (0.05%, ACN) was used as a quench solution (Sigma-Aldrich, St. Louis, Mo.). All solvents used for LC/MS were of chromatographic grade. Pooled human liver microsomes (Lot 0610351) were purchased from XenoTech LLC, (Lenexa, Kans.).
Pooled human liver microsomes (0.1 mg/mL) were incubated at 37° C. in a phosphate buffer (66.7 mM potassium phosphate at pH 7.4) with the selective CYP3A substrate midazolam at a concentration of 2.5 μM in the presence and absence of test compound (3 μM). The reaction was started with the addition of NADPH (1 mM final concentration). The reaction was stopped after 10 minutes by addition of formic acid in acetonitrile. 1′-Hydroxymidazolam metabolite formation was measured by an HPLC MS detection method (mobile phases were 0.1% AcOH in 5% MeOH, and 0.1% AcOH in 95% MeOH; the HPLC column was an Onyx Monolithic C18 CHO-7645 HPLC column obtained from Phenomenex; Shimadzu LC-10ADVP equipped Biomek FX Liquid handling system and CTC Analytics PAL well auto-sampler; Mass spectrometer: Applied Biosystems API 3000 using Analyst 1.4.1 software). Inhibition was determined by the ratio of the amount of 1′-hydroxy midazolam metabolite formed in the presence of test compound to the amount of metabolite found in the absence of test compound Inhibition was measured relative to the rate of formation of 1′-hydroxy midazolam incubated at 2.5 μM without test compound.

T2 sequence (P08684 whole entry): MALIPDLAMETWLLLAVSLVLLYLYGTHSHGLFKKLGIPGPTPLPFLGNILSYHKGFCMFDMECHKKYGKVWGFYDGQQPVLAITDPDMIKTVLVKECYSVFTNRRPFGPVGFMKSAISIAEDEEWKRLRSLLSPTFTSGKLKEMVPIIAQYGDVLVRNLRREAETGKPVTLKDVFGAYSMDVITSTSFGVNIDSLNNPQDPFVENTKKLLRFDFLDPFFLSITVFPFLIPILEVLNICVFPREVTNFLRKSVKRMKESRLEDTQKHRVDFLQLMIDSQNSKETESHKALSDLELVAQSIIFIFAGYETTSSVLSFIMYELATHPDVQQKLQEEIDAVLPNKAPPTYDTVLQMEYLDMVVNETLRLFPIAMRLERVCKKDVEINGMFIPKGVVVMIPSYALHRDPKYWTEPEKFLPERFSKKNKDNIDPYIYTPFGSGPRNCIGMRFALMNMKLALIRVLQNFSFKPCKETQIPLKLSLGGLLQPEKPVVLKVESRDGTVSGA
T1 sequence (P31749 118-472 limits assumed): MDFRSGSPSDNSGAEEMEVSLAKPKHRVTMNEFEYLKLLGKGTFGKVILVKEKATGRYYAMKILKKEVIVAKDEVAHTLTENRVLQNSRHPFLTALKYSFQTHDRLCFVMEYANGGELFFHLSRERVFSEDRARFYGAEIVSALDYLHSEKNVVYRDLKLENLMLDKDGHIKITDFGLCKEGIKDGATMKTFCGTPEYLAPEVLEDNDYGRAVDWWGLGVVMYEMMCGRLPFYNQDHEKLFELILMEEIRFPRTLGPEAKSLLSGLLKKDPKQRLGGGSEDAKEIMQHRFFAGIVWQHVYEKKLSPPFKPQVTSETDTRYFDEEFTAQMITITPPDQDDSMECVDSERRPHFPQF

Structure (SMILES) | IC50 (PKBα) [µM] | inhibition at 10 min, 3 μM (CYP3A4) [%]
N[C@H](CNc1ncc(-c2ccc3cnc(F)cc3c2)s1)Cc1ccc(C(F)(F)F)nc1 [Example 2, (2S)—N-(5-(3-Fluoro-6-isoquinolinyl)-1,3-thiazol-2-yl)-3-(6-(trifluoromethyl)-3-pyridinyl)-1,2-propanediamine] | < 0.05 | 75
C[C@@H](c1ccc(C(F)(F)F)cc1)[C@H](N)CNc1ncc(-c2ccc3cnc(F)cc3c2)s1 [Example 10, N-((2S,3S)-2-Amino-3-(4-(trifluoromethyl)phenyl)butyl)-5-(3-fluoroisoquinolin-6-yl)thiazol-2-amine] | < 0.05 | 0
COCc1nc(NC[C@@H](N)Cc2ccc(C(F)(F)F)nc2)sc1-c1ccc2cnc(F)cc2c1 [Example 18, N—((S)-2-Amino-3-(6-(trifluoromethyl)pyridin-3-yl)propyl)-5-(3-fluoroisoquinolin-6-yl)-4-(methoxymethyl)thiazol-2-amine] | < 0.05 | 0
N[C@H](CNc1ncc(-c2ccc3cnc(F)cc3c2)s1)CN1CCC(C(F)(F)F)CC1 [Example 25, N—((R)-2-Amino-3-(4-(trifluoromethyl)piperidin-1-yl)propyl)-5-(3-fluoroisoquinolin-6-yl)thiazol-2-amine] | 0.05 to 1 | 48
N[C@H](CNc1ncc(-c2ccc3cnc(F)cc3c2)s1)[C@@H](CO)c1ccc(C(F)(F)F)cc1 [Example 33, (2S,3S)-3-Amino-4-(5-(3-fluoroisoquinolin-6-yl)thiazol-2-ylamino)-2-(4-(trifluoromethyl)phenyl)butan-1-ol] | < 0.05 | 48
N[C@H](CCc1ncc(-c2ccc3cnc(F)cc3c2)s1)[C@@H](O)c1ccc(C(F)(F)F)cc1 [Example 36, (1S,2R)-2-Amino-4-(5-(3-fluoroisoquinolin-6-yl)thiazol-2-yl)-1-(4-(trifluoromethyl)phenyl)butan-1-ol trifluoroacetate] | < 0.05 | 0

Now from value to compound:

IC50 (PKBα) [µM] | inhibition at 10 min, 3 μM (CYP3A4) [%] | Structure (SMILES)
< 0.05 | 0 | N[C@H](CNc1ncc(-c2ccc3cnc(F)cc3c2)s1)Cc1ccc(C(F)(F)F)cc1 [Example 4, N—((S)-2-Amino-3-(4-(trifluoromethyl)phenyl)propyl)-5-(3-fluoroisoquinolin-6-yl)thiazol-2-amine trifluoroacetate]
< 0.05 | 13 | CC(F)(F)c1ccc(C[C@H](N)CNc2ncc(-c3ccc4cnc(F)cc4c3)s2)cn1 [Example 7, N—((S)-2-Amino-3-(6-(1,1-difluoroethyl)pyridin-3-yl)propyl)-5-(3-fluoroisoquinolin-6-yl)thiazol-2-amine]
< 0.05 | 9 | CC(F)(F)c1ccc([C@H](O)[C@H](N)CNc2ncc(-c3ccc4cnc(F)cc4c3)s2)cc1 [Example 38, (1S,2R)-2-Amino-1-(4-(1,1-difluoroethyl)phenyl)-3-((5-(3-fluoro-6-isoquinolinyl)-1,3-thiazol-2-yl)amino)-1-propanol trifluoroacetate]
< 0.05 | 48 | N[C@H](CNc1ncc(-c2ccc3cnc(F)cc3c2)s1)Cc1ccc(Cl)c(F)c1 [Example 44, (2S)-3-(4-Chloro-3-fluorophenyl)-N-1-(5-(3-fluoro-6-isoquinoliny)-1,3-thiazol-2-yl)-1-2-propanediamine]
< 0.05 | 21 | CC(F)(F)c1ccc(C[C@H](N)CCc2ncc(-c3ccc4cnc(F)cc4c3)s2)cn1 [Example 50]
